Assay results reported in patent US11213512B2, “Bis-amino acid based compound and use thereof” (THE CURATORS OF THE UNIVERSITY OF MISSOURI, priority 2016, dated 2022).

Columns and labels:
Cos-7 cells = assay: Cytotoxicity to mammalian cells, XTT assay; assay type: cell-based, Cercopithecus aethiops; details: 24 h; for percent survival Cos-7: at MIC against Tet^R E. coli (2: 48, 3: 28, 5: 56, 6: 120, 7: 128, 10: 10 μM); for survival of Cos-7 (in words): two-fold increase over MIC / highest concentrations tested; for cytotoxicity to Cos-7 (in words): at MIC against Tet^R E. coli (2: 48, 7: 128, 10: 10 μM)
Description: It was initially hypothesized that antimicrobial activity resulted from membrane disruption. Membrane active compounds are often cytotoxic to mammalian cells (Shai, Biopolymers 2002, 66, 236-48; Shai, et al., Curr. Protein Pept. Sci. 2006, 7, 479-86). The survival of three mammalian epithelial cell lines was assayed for 2, 3, 5, and 10. […] The cell lines studied were human embryonic kidney (HEK-293), human cervix epithelial (HeLa, ATCC Accession No. CCL-2), and Cercopithecus aethiops kidney (Cos-7, ATCC Accession No. CRL 1651). HeLa cells were acquired from ATCC. Cos-7 and HEK-293 cells were donated by colleagues. Cell lines were regularly maintained in growth media containing DMEM (ATCC), 10% fetal bovine serum (FBS, ATCC) and 1% penicillin-streptomycin solution (ATCC). Adherent HEK-293, HeLa and Cos-7 cells were trypsinized using 0.25% (w/v) trypsin-EDTA (Sigma-Aldrich), suspended in a fresh media and diluted to get a concentration of 3×10^5 cells/ml. Cells were seeded in a 96-well plate (100 μL/well) to get 3×10^4 cells/well. The plates were incubated for 24 hours at 5% CO2 and 37° C. to reach a confluency of 80-90%.
In a sterile 1.5 mL micro-centrifuge tube, compounds 2, 3, 5, 6, 7 and 10 (0.5% DMSO) were mixed with assay media (DMEM+10% FBS) and serially diluted by 2-fold each to get 2[MIC], [MIC], ½[MIC] and ¼ [MIC] concentrations. A control containing 0.5% DMSO was also prepared. After 24 hours, the spent media in the 96-well plate containing HEK-293, HeLa and Cos-7 cells (90% confluency) was replaced with 100 μL media containing the compounds 2, 3, 5, 6, 7 and 10 at various concentrations. The cells were incubated at 37° C. and 5% CO2 for 24 hours before performing XTT assay (Sigma-Aldrich). The XTT assay was performed according to the manufacturer's protocol. After 24 hours of treatment with compounds, the media was replaced with PBS and 25 μL XTT was added to each well. The XTT assay works by the reduction of tetrazolium compound by alive cells to the colored soluble formazan product. The absorbance of the product was measured at 450 nm (XTT) and 690 nm (background). Percent survival was calculated by comparing the average absorbance of cells treated with compounds 2, 3, 5, 6, 7, and 10 to that of cells alone. Two replicates for each treatment were determined. Average percent survival and standard deviation were calculated.
Cells were cultured for 24 h in 96-well plates and treated with media containing concentrations using [MIC] and [MIC]×2 determined previously for Tet^R E. coli. The number of surviving cells was determined using an XTT assay (Sigma-Aldrich); the results are represented as percent survival in FIG. 2. Cells alone were used as controls and established 100% survival. The data represent two replicates of three trials and the error bars represent the standard deviation.

E. coli K12 = assay: MIC, CLSI/NCCLS broth microdilution; assay type: cell-based, Escherichia coli; details: Escherichia coli, K12, 24 h, read-out: Minimal Inhibitory Concentration (MIC) E. coli K12
Description: (§1) Two different strains of E. coli (Gram-negative) were used. The laboratory strain of E. coli, K-12 (ATCC Accession No. 700926), was used for preliminary MIC determinations. The tetracycline resistant strain of E. coli (Tet^R) was prepared by transforming competent JM109 E. coli (Promega) with the pBR322 plasmid (Carolina Biologicals) using the manufacturers protocol. This plasmid contains two resistance genes: the tetA gene expresses the tetracycline resistance TetA efflux pump (Sapunaric and Levy, Microbiol. 2005, 151, 2315-2322) and the amp^R gene expresses a β-lactamase enzyme (Bolivar, et al; Gene 1977, 2, 95-113) that cleaves the four membered ring of penicillin derivatives. The resulting E. coli, which we designate Tet^R E. coli, is both tetracycline and ampicillin resistant. The TetA efflux pump belongs to the major facilitator superfamily (MFS), spans the cytoplasmic membrane, and transports tetracycline from the cell cytoplasm to the periplasmic space (Thanassi, et al., J. Bacteriol. 1995, 177, 998-1007). This active efflux utilizes the proton gradient as an energy source (Levy, Antimicrob. Agents Chemother. 1992, 36, 695-703). One Gram-positive strain, S. aureus (ATCC Accession No. 29213), used for MIC study expresses the MFS type NorA efflux pump and is methicillin sensitive. MFS type efflux pumps are clinically relevant for resistance in both Gram-positive and Gram-negative bacteria (Sun, et al., Biochem. Biophys. Res. Commun. 2014, 453, 254-267). A Staphylococcus aureus 1199B strain that overexpresses the NorA efflux pump was also used to conduct checkerboard experiments (see, Example 8 below). This strain of S. aureus 1199B is resistant to both norfloxacin and ethidium bromide.
(§2) K-12 E. coli and S. aureus were acquired from ATCC. The S. aureus strain was used in the BSL-2 facility. K-12 E. coli was grown in L. B. Miller media (Sigma-Aldrich) and S. aureus was grown in cation adjusted MHII media (Sigma-Aldrich). Tet^R E. coli was grown in L. B. Miller media containing 100 μg/mL Ampicillin.
(§3) MIC experiments were performed as described in the Clinical and Laboratory Standards Institute (CLSI) standard microdilution protocols. Bacteria was grown overnight from one CFU in media without antibiotics. Tet^R E. coli was grown in media containing 100 μg/mL Ampicillin. On the day of experiment, bacteria were knocked back to O.D. 600 nm=0.550 in the same media. These exponential phase bacteria were then diluted in antibiotics-free media to get […]. In a 96-well plate either L. B. Miller or MHII media was added followed by serially diluted compounds 1-11, tetracycline, or ampicillin. All the tryptophan based compounds were dissolved in DMSO and the final concentration of DMSO in each well was kept constant at 0.5% (v/v).
(§4) For the combination experiments, first, the BT or control was added to the media in the well followed by the antibiotics. The contents of the well were mixed before adding 20 μL of bacteria to get 4×10^5 CFU/mL per well. The plates were incubated at 37° C., 200 RPM for 24 hours before collecting results on the Biotek Cytation 3 plate reader. No more than three plates were stacked on top of each other at a time. Optical density of the wells was determined at λ=600 nm. Cells alone were considered as 0% inhibition and media alone was considered as 100% inhibition. Any inhibition greater than 80% was considered as the MIC. The results were reproduced three times before reporting.
(§5) All minimum inhibitory concentration (MIC) values for compounds 1-11 were determined according to the methods prescribed by the National Committee for Clinical Laboratory Standards (NCCLS, Methods for Dilution Antimicrobial Susceptibility Tests for Bacteria that grow aerobically; National Committee for Clinical Laboratory Standards 2000, 5th Edition, M7-A5). […]

Tet^R E. coli = assay: MIC, CLSI/NCCLS broth microdilution; assay type: cell-based, Escherichia coli; details: 24 h; for MIC: Escherichia coli, read-out: Minimal Inhibitory Concentration (MIC) E. coli Tet^R; for Minimal Inhibitory Concentration (MIC) E. coli Tet^R: >80% growth inhibition, 37° C., substance alone
Description: as §1, §2, §3, §4, §5

Structure (SMILES): Cl.Cl.N[C@@H](Cc1c[nH]c2ccccc12)C(=O)Nc1ccccc1NC(=O)[C@@H](N)Cc1c[nH]c2ccccc12 [Compound 5, (2S,2′S)-1,1′-(1,2-Phenylenebis(azanediyl))bis(3-(1H-indol-3-yl)-1-oxopropan-2-aminium) chloride]
- percent survival Cos-7 (Cos-7 cells): 100%
- survival of Cos-7 (in words) (Cos-7 cells): unaffected
- MIC (E. coli K12): 64 µM
- MIC (Tet^R E. coli): 56 ± 8 µM

Structure (SMILES): Cl.Cl.N[C@H](Cc1c[nH]c2ccccc12)C(=O)Nc1cccc(NC(=O)[C@H](N)Cc2c[nH]c3ccccc23)c1 [Compound 3, (2R,2′R)-1,1′-(1,3-Phenylenebis(azanediyl))bis(3-(1H-indol-3-yl)-1-oxopropan-2-aminium) chloride]
- percent survival Cos-7 (Cos-7 cells): 100%
- MIC (E. coli K12): 64 µM
- Minimal Inhibitory Concentration (MIC) E. coli Tet^R (Tet^R E. coli): 28 ± 4 µM
- MIC (Tet^R E. coli): 28 ± 4 µM

Structure (SMILES): Cl.Cl.N[C@@H](Cc1c[nH]c2ccccc12)C(=O)NCCCNC(=O)[C@@H](N)Cc1c[nH]c2ccccc12 [Compound 7, (2S,2′S)-1,1′-(Propane-1,3-diylbis(azanediyl))bis(3-(1H-indol-3-yl)-1-oxopropan-2-aminium) chloride]
- cytotoxicity to Cos-7 (in words) (Cos-7 cells): minimally toxic
- MIC (E. coli K12): > 128 µM
- MIC (Tet^R E. coli): > 128 µM

Structure (SMILES): Cl.Cl.N[C@@H](Cc1c[nH]c2ccccc12)C(=O)Nc1ccc(NC(=O)[C@@H](N)Cc2c[nH]c3ccccc23)cc1 [Compound 6, (2S,2′S)-1,1′-(1,4-Phenylenebis(azanediyl))bis(3-(1H-indol-3-yl)-1-oxopropan-2-aminium) chloride]
- percent survival Cos-7 (Cos-7 cells): 100%
- MIC (E. coli K12): 128 µM
- MIC (Tet^R E. coli): 120 ± 14 µM

Structure (SMILES): Cl.Cl.N[C@@H](Cc1c[nH]c2ccccc12)C(=O)Nc1cccc(NC(=O)[C@@H](N)Cc2c[nH]c3ccccc23)c1 [Compound 2, (2S,2′S)-1,1′-(1,3-Phenylenebis(azanediyl))bis(3-(1H-indol-3-yl)-1-oxopropan-2-aminium) chloride]
- percent survival Cos-7 (Cos-7 cells): 100%
- cytotoxicity to Cos-7 (in words) (Cos-7 cells): no cytotoxicity
- survival of Cos-7 (in words) (Cos-7 cells): unaffected
- MIC (E. coli K12): 64 µM
- Minimal Inhibitory Concentration (MIC) E. coli Tet^R (Tet^R E. coli): 48 ± 8 µM
- MIC (Tet^R E. coli): 48 ± 8 µM

Structure (SMILES): Cl.Cl.N[C@H](Cc1c[nH]c2ccccc12)C(=O)NCCCCCCCCCCCCNC(=O)[C@@H](N)Cc1c[nH]c2ccccc12 [Compound 10, (S)-1-((12-((R)-2-Ammonio-3-(1H-indol-3-yl)propanamido)dodecyl)amino)-3-(1H-indol-3-yl)-1-oxopropan-2-aminium chloride]
- cytotoxicity to Cos-7 (in words) (Cos-7 cells): minimally toxic
- MIC (E. coli K12): 8 µM
- MIC (Tet^R E. coli): 10 ± 2 µM
